System: MRC-9 cells
Assay: Multiplex high-content viability assessment
Assay type: cell-based
Settings: human fibroblast
In short: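 HEK293T and U2OS cells (DMEM) and MRC-9 fibroblasts (EMEM) exposed to compounds at 1 and 10 μM. Live-cell confocal imaging of cell shape and fluorescence before and at 12, 24 and 48 h. Normalized to 0.1% DMSO; biological duplicates with SEM.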

[1] = 1 µM, 0 h after treatment, biological replicate 1
[2] = 1 µM, 0 h after treatment, biological replicate 2
[3] = 1 µM, 12 h after treatment, biological replicate 1
[4] = 1 µM, 12 h after treatment, biological replicate 2
[5] = 1 µM, 24 h after treatment, biological replicate 1
[6] = 1 µM, 24 h after treatment, biological replicate 2
[7] = 1 µM, 48 h after treatment, biological replicate 1
[8] = 1 µM, 48 h after treatment, biological replicate 2
[9] = 10 µM, 0 h after treatment, biological replicate 1
[10] = 10 µM, 0 h after treatment, biological replicate 2
[11] = 10 µM, 12 h after treatment, biological replicate 1
[12] = 10 µM, 12 h after treatment, biological replicate 2
[13] = 10 µM, 24 h after treatment, biological replicate 1
[14] = 10 µM, 24 h after treatment, biological replicate 2
[15] = 10 µM, 48 h after treatment, biological replicate 1
[16] = 10 µM, 48 h after treatment, biological replicate 2

CC(C)C(=O)Nc1ncc(C(=O)NCCN(Cc2ccccc2)C(=O)c2ccc(S(=O)(=O)Nc3ccccc3)cc2)s1 [TH470]
Cell count normalized to cells treated with DMSO control [1]: 0.8608
Cell count per well [1]: 129
Population Fragmented Nuclei (%) [1]: 29.31%
Population Healthy Nuclei (%) [1]: 61.21%
Population Pyknosed Nuclei (%) [1]: 9.48%
Population apoptotic cell (%) [1]: 36.36%
Population cell that influence microtubule strucutre (%) [1]: 19.72%
Population with increased mitochondrial mass (%) [1]: 8.45%
Population with membrane disruption (%) [1]: 1.41%
Cell count normalized to cells treated with DMSO control [2]: 0.9307
Cell count per well [2]: 166
Population Fragmented Nuclei (%) [2]: 25.00%
Population Healthy Nuclei (%) [2]: 44.23%
Population Pyknosed Nuclei (%) [2]: 30.77%
Population apoptotic cell (%) [2]: 35.42%
Population cell that influence microtubule strucutre (%) [2]: 44.93%
Population with increased mitochondrial mass (%) [2]: 11.59%
Population with membrane disruption (%) [2]: 10.14%
Cell count normalized to cells treated with DMSO control [3]: 0.8102
Cell count per well [3]: 122
Population Fragmented Nuclei (%) [3]: 23.93%
Population Healthy Nuclei (%) [3]: 62.39%
Population Pyknosed Nuclei (%) [3]: 13.68%
Population apoptotic cell (%) [3]: 43.75%
Population cell that influence microtubule strucutre (%) [3]: 27.40%
Population with increased mitochondrial mass (%) [3]: 4.11%
Population with membrane disruption (%) [3]: 2.74%
Cell count normalized to cells treated with DMSO control [4]: 0.8825
Cell count per well [4]: 147
Population Fragmented Nuclei (%) [4]: 34.51%
Population Healthy Nuclei (%) [4]: 42.25%
Population Pyknosed Nuclei (%) [4]: 23.24%
Population apoptotic cell (%) [4]: 36.36%
Population cell that influence microtubule strucutre (%) [4]: 73.33%
Population with increased mitochondrial mass (%) [4]: 13.33%
Population with membrane disruption (%) [4]: 15.00%
Cell count normalized to cells treated with DMSO control [5]: 0.8356
Cell count per well [5]: 126
Population Fragmented Nuclei (%) [5]: 27.27%
Population Healthy Nuclei (%) [5]: 57.02%
Population Pyknosed Nuclei (%) [5]: 15.70%
Population apoptotic cell (%) [5]: 63.16%
Population cell that influence microtubule strucutre (%) [5]: 34.78%
Population with increased mitochondrial mass (%) [5]: 4.35%
Population with membrane disruption (%) [5]: 1.45%
Cell count normalized to cells treated with DMSO control [6]: 0.9099
Cell count per well [6]: 150
Population Fragmented Nuclei (%) [6]: 42.18%
Population Healthy Nuclei (%) [6]: 40.82%
Population Pyknosed Nuclei (%) [6]: 17.01%
Population apoptotic cell (%) [6]: 56.00%
Population cell that influence microtubule strucutre (%) [6]: 61.67%
Population with increased mitochondrial mass (%) [6]: 10.00%
Population with membrane disruption (%) [6]: 18.33%
Cell count normalized to cells treated with DMSO control [7]: 0.8239
Cell count per well [7]: 125
Population Fragmented Nuclei (%) [7]: 33.87%
Population Healthy Nuclei (%) [7]: 54.03%
Population Pyknosed Nuclei (%) [7]: 12.10%
Population apoptotic cell (%) [7]: 60.00%
Population cell that influence microtubule strucutre (%) [7]: 41.79%
Population with increased mitochondrial mass (%) [7]: 4.48%
Population with membrane disruption (%) [7]: 1.49%
Cell count normalized to cells treated with DMSO control [8]: 0.9026
Cell count per well [8]: 147
Population Fragmented Nuclei (%) [8]: 48.98%
Population Healthy Nuclei (%) [8]: 42.18%
Population Pyknosed Nuclei (%) [8]: 8.84%
Population apoptotic cell (%) [8]: 69.23%
Population cell that influence microtubule strucutre (%) [8]: 61.29%
Population with increased mitochondrial mass (%) [8]: 16.13%
Population with membrane disruption (%) [8]: 9.68%
Cell count normalized to cells treated with DMSO control [9]: 1.121
Cell count per well [9]: 168
Population Fragmented Nuclei (%) [9]: 21.21%
Population Healthy Nuclei (%) [9]: 57.58%
Population Pyknosed Nuclei (%) [9]: 21.21%
Population apoptotic cell (%) [9]: 25.71%
Population cell that influence microtubule strucutre (%) [9]: 17.89%
Population with increased mitochondrial mass (%) [9]: 6.32%
Population with membrane disruption (%) [9]: 1.05%
Cell count normalized to cells treated with DMSO control [10]: 0.8074
Cell count per well [10]: 144
Population Fragmented Nuclei (%) [10]: 27.54%
Population Healthy Nuclei (%) [10]: 50.00%
Population Pyknosed Nuclei (%) [10]: 22.46%
Population apoptotic cell (%) [10]: 38.71%
Population cell that influence microtubule strucutre (%) [10]: 49.28%
Population with increased mitochondrial mass (%) [10]: 15.94%
Population with membrane disruption (%) [10]: 2.90%
Cell count normalized to cells treated with DMSO control [11]: 1.202
Cell count per well [11]: 181
Population Fragmented Nuclei (%) [11]: 19.88%
Population Healthy Nuclei (%) [11]: 54.97%
Population Pyknosed Nuclei (%) [11]: 25.15%
Population apoptotic cell (%) [11]: 39.53%
Population cell that influence microtubule strucutre (%) [11]: 77.66%
Population with increased mitochondrial mass (%) [11]: 9.57%
Population with membrane disruption (%) [11]: 3.19%
Cell count normalized to cells treated with DMSO control [12]: 0.9125
Cell count per well [12]: 152
Population Fragmented Nuclei (%) [12]: 31.25%
Population Healthy Nuclei (%) [12]: 34.03%
Population Pyknosed Nuclei (%) [12]: 34.72%
Population apoptotic cell (%) [12]: 54.00%
Population cell that influence microtubule strucutre (%) [12]: 91.84%
Population with increased mitochondrial mass (%) [12]: 14.29%
Population with membrane disruption (%) [12]: 18.37%
Cell count normalized to cells treated with DMSO control [13]: 1.167
Cell count per well [13]: 176
Population Fragmented Nuclei (%) [13]: 24.85%
Population Healthy Nuclei (%) [13]: 52.66%
Population Pyknosed Nuclei (%) [13]: 22.49%
Population apoptotic cell (%) [13]: 57.89%
Population cell that influence microtubule strucutre (%) [13]: 78.65%
Population with increased mitochondrial mass (%) [13]: 19.10%
Population with membrane disruption (%) [13]: 1.12%
Cell count normalized to cells treated with DMSO control [14]: 0.825
Cell count per well [14]: 136
Population Fragmented Nuclei (%) [14]: 34.62%
Population Healthy Nuclei (%) [14]: 32.31%
Population Pyknosed Nuclei (%) [14]: 33.08%
Population apoptotic cell (%) [14]: 44.19%
Population cell that influence microtubule strucutre (%) [14]: 88.10%
Population with increased mitochondrial mass (%) [14]: 19.05%
Population with membrane disruption (%) [14]: 16.67%
Cell count normalized to cells treated with DMSO control [15]: 1.081
Cell count per well [15]: 164
Population Fragmented Nuclei (%) [15]: 23.18%
Population Healthy Nuclei (%) [15]: 54.97%
Population Pyknosed Nuclei (%) [15]: 21.85%
Population apoptotic cell (%) [15]: 48.48%
Population cell that influence microtubule strucutre (%) [15]: 89.16%
Population with increased mitochondrial mass (%) [15]: 22.89%
Population with membrane disruption (%) [15]: 0.00%
Cell count normalized to cells treated with DMSO control [16]: 0.7798
Cell count per well [16]: 127
Population Fragmented Nuclei (%) [16]: 44.35%
Population Healthy Nuclei (%) [16]: 37.90%
Population Pyknosed Nuclei (%) [16]: 17.74%
Population apoptotic cell (%) [16]: 63.64%
Population cell that influence microtubule strucutre (%) [16]: 89.36%
Population with increased mitochondrial mass (%) [16]: 17.02%
Population with membrane disruption (%) [16]: 17.02%

— PMC12090182, “Repurposing of the RIPK1-Selective Benzo[1,4]oxazepin-4-one Scaffold for the Development of a Type III LIMK1/2 Inhibitor” (ACS Chemical Biology, 2025)
